PMC7940618, “Specific inhibition of the Survivin–CRM1 interaction by peptide-modified molecular tweezers” (Nature Communications, 2021)
Where “and” joins values, the source holds several entries; their conditions need not be identical. Identical values can stand only once. Like-named read-outs stand apart in the source and are kept apart here. Peptide text beside a SMILES is read from it.

Experiments:
[1] = target: T1, Survivin120 K90/103T (Homo sapiens, UniProt O15392, K103T/K90T); test: ITC titration of tweezers with Survivin120 K90/103T mutant; assay type: binding
T1 construct: the only published NMR structure originated from a truncated Survivin (aa 1-120) with improved solubility; GST with PreScission site (N); made in house; host or cells: Escherichia coli soluBL21
T1 sequence (O15392 1-120 K90T/K103T): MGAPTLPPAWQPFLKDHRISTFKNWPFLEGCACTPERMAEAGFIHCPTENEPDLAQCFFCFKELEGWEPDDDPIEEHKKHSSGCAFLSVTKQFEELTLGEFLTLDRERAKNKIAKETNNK
Description: If the tweezer-based inhibitors indeed bind to lysines/arginines flanking the NES (K90, K91, K103, R106), their mutation to, e.g., threonine, should abolish the observed effects. For this reason, we generated double and triple Survivin120 mutants lacking these putative tweezer anchor points. Unfortunately, most double mutants and especially the triple mutants were unfolded as evidenced by 1D ^1H NMR (SI6); finally, the correctly folded double threonine mutant Survivin120 K90/103T was chosen for further investigation. […] Next, binding of FAM-labeled tweezers (SI3) to either Survivin120 wildtype or the K90/103T mutant was studied by fluorescence anisotropy (Fig. 7d–f). […] We conclude that lysines 90 and 103 are indeed essential for efficient tweezer binding.
ITC was performed with a MicroCal iTC200 from Malvern Panalytical in PBS, pH 7.4 at 25 °C with molecular tweezers in the cell and Survivin120 in the titration syringe. The protein was dialyzed overnight at 4 °C against the PBS buffer. Ligands were dissolved in the respective dialysis buffer. Then, 300 µM TW were titrated with 300 µM Survivin120 WT or 321 µM Survivin120 K90/103T. Then, 100 µM TW-ELTL, TW-ELTLGEFL, or TW-LFEEGLLT was titrated with 1.2 mM Survivin120 WT or 2.5 mM Survivin120 K90/103T. For reverse titrations, either 33.3 or 34.4 µM Survivin120 in the cell was titrated with 5 mM TW or TW-ELTL in the syringe, respectively. All titrations were performed in PBS, pH 7.4 at 25 °C. Then, 1.5 μL injections were used with 120 s spacing time between injections. The injection rate was set to 0.5 µL/s and the reference power was 5 µcal/s. ITC thermograms were fitted to a one set of sites model with the software Origin (v7.0552) provided with the instrument. Heat of dilution was subtracted as constant from each data point.
ITC thermograms were fitted to a one set of sites model with the software Origin provided with the instrument. Heat of dilution was subtracted as constant from each data point. From three independent experiments (n = 3), one representative example was depicted, and thermodynamic data were derived thereof. For pull-down experiments, only the representative quantification of the depicted western blot is shown. […] Fluorescence anisotropy graphs were generated with GraphPad Prism 5.0. Depicted error bars represent the standard deviation of three independent titrations.

[2] = target: T2, GST-Survivin120–CRM1 interaction (Homo sapiens, UniProt O15392); test: Pull-down with GST-Survivin120 wildtype bait, CRM1 and RanQ69L; assay type: binding; conditions: for CRM1: Peak area determined with ImageJ / CRM1 intensity_normalised on GST-Surv intensity (samples 1-14) / CRM1: Control w/o GST-Survivin subtracted (sample 16 or 23): CRM1 band; for CRM1: Peak area determined with ImageJ / CRM1 intensity_normalised on GST-Surv intensity (samples 1-14) / CRM1: Control w/o GST-Survivin subtracted (sample 16 or 23) / CRM1 intensity_normalised on GST-Surv intensity (samples 1-14) and CRM1 intensity w/o incubation (sample 15 or 22): samples 15-21 (WT); for CRM1: Control w/o GST-Survivin subtracted (sample 16 or 23): sample 16 subtracted; for GST-Surv: Peak area determined with ImageJ / GST-Surv: Control w/o GST-Survivin subtracted (sample 2 or 9): GST-Surv bait band; for GST-Surv: Peak area determined with ImageJ: samples 1-7 (WT according to the summary in r39-r41); for GST-Surv: Control w/o GST-Survivin subtracted (sample 2 or 9): samples 1-7 (WT), sample 2 subtracted; for Normalised CRM1 intensity, summary of replicates I and II: WT, w/o tweezer = 100, replicates I and II
T2 construct: the only published NMR structure originated from a truncated Survivin (aa 1-120) with improved solubility; made in house; host or cells: Escherichia coli soluBL21
T2 sequence (O15392 1-120): as the sequence (O15392 1-120 K90T/K103T) above, with T90K, T103K counted along it
Protocol: Next, we investigated whether tweezer inhibition of the export complex assembly is compromised upon lysine mutations near the NES. Therefore, pull-down experiments were performed with recombinant GST-tagged Survivin120 wildtype and K90/103T as bait proteins, tweezers, recombinant CRM1 and RanQ69L (Fig. 7g). Controls lacking the Survivin baits were included, as well as isolated peptides without tweezer (Fig. 7h). […] However, for the double lysine mutant GST-Survivin120-K90/103T even the tweezer conjugates lost most of their inhibitory power toward the essential Survivin–CRM1 interaction.
All pull-down assays were performed at room temperature in pull-down buffer (PBS, pH 7.4, 1 mM DTT, 0.02 Triton X-100). GST fusion proteins were immobilized on 50 μL GSH-coated Sepharose 4B beads from GE Healthcare. The beads were prior equilibrated and blocked with 500 μL pull-down blocking buffer (PBS, pH 7.4, 1 (w/v) BSA, 1 mM DTT, 0.02 (v/v) Triton X-100) for 1 h to prevent unspecific binding.
For analysis of the effective inhibitory tweezer concentration, 200 μg 293T lysate with overexpressed Survivin142-HA was preincubated without ligand or with different concentrations (10 nM to 200 μM) of unmodified tweezer TW, TW-ELTL, TW-ELTLGEFL, or TW-LFEEGLLT for 1 h and then mixed with 35 μg GST-CRM1, 55 μg RanQ69L, and 2 mM dGTP. GSH-beads were incubated with this protein mixture for 2 h under rotation. For analysis of tweezer specificity, 40 μg GST-Survivin120 or GST-Survivin120-K90/103T point mutant was pre-bound to equilibrated GSH-beads in 500 μL pull-down buffer, containing additionally either no ligand or 50 μM unmodified tweezer TW, TW-ELTL, TW-ELTLGEFL, or peptides ELTL and ELTLGEFL, for 1 h under rotation. After washing and blocking, GSH-beads were incubated with a protein mixture consisting of 2 mM dGTP, 50 μg CRM1, and 50 μg RanQ69L for 2 h under rotation.
Samples of input and beads taken during pull-down experiments were ran on 12.5 SDS gels and transferred onto 0.2 µM PVDF membranes (Amersham Hybond P 0.2) using a PerfectBlue™ tank electro blotter (Peqlab) at 350 mA for 150 min. Membranes were blocked for 1 h using 5% milk powder in TBS buffer containing 0.1% Tween-20. Next, membranes were incubated in primary antibodies against HA (anti-HA, mouse monoclonal, BioLegend, Covance MMS-101R, 1:1,000), GST (anti-GST, mouse monoclonal, Santa Cruz Biotechnology Inc., sc-57753, 1:1000) or CRM1 (anti-CRM1, rabbit polyclonal, Novus Biologicals Ltd., NB100-79802, 1:10,000) overnight at 4 °C. Secondary horseradish peroxidase (HRP)-conjugated antibody (anti-mouse IgG-HRP, sheep, GE Healthcare, NXA931 or anti-rabbit IgG-HRP, donkey, GE Healthcare, NA934) was then added (1:10,000) for 1 h at room temperature. Chemiluminescence was detected and imaged using the Pierce ECL Plus Western Blotting Substrate kit (Thermo Fisher Scientific) and Chemidoc system (Bio-Rad) or film processor Cawomat 2000 IR (CAWO). Western blots were analyzed by densitometric analysis with ImageJ version 1.52p (U.S. National Institutes of Health), measuring the mean gray intensity of protein bands. Uncropped and unprocessed scans of western blots are deposited in the Source Data file.

[3] = fraction of sample 15 (w/o Tweezer)

Question: Which results are given for `O=P(O)(O)Oc1c2c(c(OP(=O)(O)O)c3c1C1CC3c3cc4c(cc31)C1CC4c3ccccc31)C1CC2c2cc3c(cc21)C1CC3c2ccccc21` [TW, reference compound]?
Answer: ΔH ([1]; ITC, Survivin120 K90/103T): -0.6 kcal; Kd ([1]; ITC, Survivin120 K90/103T, PBS pH 7.4, 25 °C, one set of sites model, read-out: KD): 49 ± 5 µM; CRM1: Peak area determined with ImageJ [2]: 21154.6; CRM1 intensity_normalised on GST-Surv intensity (samples 1-14) [2]: 0.3073; CRM1: Control w/o GST-Survivin subtracted (sample 16 or 23) [2]: 16296.9; GST-Surv: Peak area determined with ImageJ [2]: 53864.7; GST-Surv: Control w/o GST-Survivin subtracted (sample 2 or 9) [2]: 53029.3; Normalised CRM1 intensity, summary of replicates I and II [2]: 86.9559% and 97.9595%; inhibition of the interaction between CRM1 and GST-Survivin120 ([2]; pull-down, 50 µM ligand, wildtype): inactive; CRM1 intensity_normalised on GST-Surv intensity (samples 1-14) and CRM1 intensity w/o incubation (sample 15 or 22) [2, 3]: 0.8696; CRM1 intensity_normalised on GST-Surv intensity (samples 1-14) and CRM1 intensity w/o incubation (sample 15 or 22) ([2]; w/o Tweezer = 100): 86.9559%

Question: For `CC(C)C[C@H](NC(=O)[C@H](Cc1ccccc1)NC(=O)[C@H](CCC(=O)O)NC(=O)CNC(=O)[C@H](CC(C)C)NC(=O)[C@@H](NC(=O)[C@H](CC(C)C)NC(=O)[C@H](CCC(=O)O)NC(=O)Cn1cc(CCOP(=O)(O)Oc2c3c(c(OP(=O)(O)O)c4c2C2CC4c4cc5c(cc42)C2CC5c4ccccc42)C2CC3c3cc4c(cc32)C2CC4c3ccccc32)nn1)[C@@H](C)O)C(=O)O` [TW-ELTLGEFL] (HELM PEPTIDE1{[O=C(Cn1cc(CCOP(=O)(O)Oc2c3c(c(OP(=O)(O)O)c4c2C2CC4c4cc5c(cc42)C2CC5c4ccccc42)C2CC3c3cc4c(cc32)C2CC4c3ccccc32)nn1)[*:2]].E.L.T.L.G.E.F.L}$$$$V2.0), which Kd [1] is on record?
Answer: The Kd was 36 ± 10 µM.

Question: And the “Normalised CRM1 intensity, summary of replicates I and II” value [2]?
Answer: The value was 18.4722% and 35.2764%.

Question: And the “CRM1 intensity_normalised on GST-Surv intensity (samples 1-14) and CRM1 intensity w/o incubation (sample 15 or 22)” value (“CRM1 intensity_normalised … (sample 15 or 22)” for short) ([2]; w/o Tweezer = 100)?
Answer: Its value is 18.4722%.

Question: Which Kd [1] does the source give for `CC(C)C[C@H](NC(=O)[C@@H](NC(=O)[C@H](CC(C)C)NC(=O)[C@H](CCC(=O)O)NC(=O)Cn1cc(CCOP(=O)(O)Oc2c3c(c(OP(=O)(O)O)c4c2[C@H]2C[C@@H]4c4cc5c(cc42)[C@H]2C[C@@H]5c4ccccc42)[C@H]2C[C@@H]3c3cc4c(cc32)[C@H]2C[C@@H]4c3ccccc32)nn1)[C@@H](C)O)C(=O)O` [TW-ELTL] here?
Answer: The Kd was 50 ± 10 µM.

Question: What about the ΔH ([1]; ITC, Survivin120 K90/103T) of the same molecule?
Answer: The ΔH was -1.3 kcal.

Question: And the “CRM1: Peak area determined with ImageJ” value [2]?
Answer: Its value is 4951.05.

Question: What about the “CRM1 intensity_normalised on GST-Surv intensity (samples 1-14)” value [2] of the same molecule?
Answer: Its value is 0.007388.

Question: What about the “CRM1: Control w/o GST-Survivin subtracted (sample 16 or 23)” value [2] of the same molecule?
Answer: Its value is 93.343.

Question: What about the “GST-Surv: Peak area determined with ImageJ” value [2] of the same molecule?
Answer: Its value is 13469.9.

Question: And the “GST-Surv: Control w/o GST-Survivin subtracted (sample 2 or 9)” value [2]?
Answer: Its value is 12634.6.

Question: And the “Normalised CRM1 intensity, summary of replicates I and II” value [2]?
Answer: Its value is 2.09% and 27.3879%.

Question: What about the “CRM1 intensity_normalised … (sample 15 or 22)” value [2, 3] of the same molecule?
Answer: Its value is 0.0209.

Question: What about the “CRM1 intensity_normalised … (sample 15 or 22)” value ([2]; w/o Tweezer = 100) of the same molecule?
Answer: The value was 2.09%.
